Several values for one entry are separate records, joined by “and”; a condition that tells them apart may be missing. Equal values may be shown once.
System: C. elegans
Conditions: Table S2, C. elegans SS assay, 110 μM, averages of 4 data points

Compound | Percentage of motility inhibition 0 h | Percentage of motility inhibition 24 h
COc1ccc(-c2cc(=O)c3c(O)cc(O[C@@H]4O[C@H](CO)[C@@H](O)[C@H](O)[C@H]4O)cc3o2)cc1O [Diosmetin‐7‐O‐β‐D‐glucopyranoside] | 53% | 10%
Cl.O=C(c1ccc(OCCN2CCCCC2)cc1)c1c(-c2ccc(O)cc2)sc2cc(O)ccc12 [Raloxifene (hydrochloride)] | 32% | 0%
Cl.OC[C@H]1NC[C@@H](O)[C@@H](O)[C@@H]1O [1‐Deoxymannojirimycin (hydrochloride)] | 32% | 11%
O=c1c(O[C@@H]2OC[C@H](O)[C@H](O)[C@H]2O)c(-c2ccc(O)c(O)c2)oc2cc(O)cc(O)c12 [Guaijaverin] | 0% | 25%
C[C@@H]1O[C@@H](O[C@H]2[C@H](Oc3cc(O)c(C(=O)CCc4ccc(O)cc4)c(O)c3)O[C@H](CO)[C@@H](O)[C@@H]2O)[C@H](O)[C@H](O)[C@H]1O [Naringin Dihy drochalcone] | 14% | 1%
CC1CCC(C(C)C)C(O)C1 (racemic) [DL-Menthol] | 27% | 0%
COc1cc2c(cc1OC)C1Cc3ccc4c(c3CN1CC2)OCO4 (centres unmarked) [Tetrahydroepiberberine] | 10% | 3%
COC(=O)C1=CO[C@@H](C)[C@@H]2CN3CC[C@@]4(C(=O)Nc5ccccc54)[C@@H]3C[C@H]12 [Isopteropodine] | 9% | 0%
CC(C)(CO)[C@@H](O)C(=O)NCCC(=O)[O-].CC(C)(CO)[C@@H](O)C(=O)NCCC(=O)[O-].[Ca+2] [D-Pantothenic acid (hemicalcium salt)] | 48% | 1%
Cl.Oc1ccc(CC2NCCc3cc(O)c(O)cc32)cc1 (centres unmarked) [Higenamine (hydrochloride)] | 0% | 7%
CC1(C)[C@@H](O[C@H]2O[C@H](C(=O)[O-])[C@@H](O)[C@H](O)[C@H]2O[C@@H]2O[C@H](C(=O)[O-])[C@@H](O)[C@H](O)[C@H]2O)CC[C@]2(C)[C@H]3C(=O)C=C4[C@@H]5C[C@@](C)(C(=O)O)CC[C@]5(C)CC[C@@]4(C)[C@]3(C)CC[C@@H]12.[K+].[K+] [Dipotassium glycyrrhizinate] | 17% and 15% | 3%
C=C[C@]1(C)CC[C@@H](C(=C)C)C[C@H]1C(=C)C [β-Elemene] | 9% and 7% | 
O=c1c2c3c(ccc2cc2n1CCc1cc4c(cc1-2)OCO4)OCO3 [8‐Oxocoptisine] | 2% | 30%
C=C1C(=O)O[C@@H]2[C@H]3C(CO)=CC(=O)C3=C(C)C[C@H](OC(=O)Cc3ccc(O)cc3)[C@@H]12 [Lactupicrin] | 7% | 25%
C[C@H](CCC(=O)NCCS(=O)(=O)[O-])[C@H]1CC[C@H]2[C@@H]3CC[C@@H]4C[C@H](O)CC[C@]4(C)[C@H]3C[C@H](O)[C@]12C.[Na+] [Taurodeoxycholic acid (sodium hydrate)] | 8% | 3%
Mogroside II-A | 0% | 14%
COc1cc2c3c(c1OC)-c1ccccc1C[C@H]3NCC2 [N‐Nornuciferine] | 13% | 0%
Asiaticoside | 6% | 0%
COc1cc(O)c2c(=O)cc(-c3ccc(OC)c(OC)c3)oc2c1 [7,3',4'‐Tri‐O‐methylluteolin] | 13% | 21%
CC1(C)S[C@@H]2[C@H](NC(=O)[C@H](NC(=O)N3CCNC3=O)c3ccccc3)C(=O)N2[C@H]1C(=O)[O-].[Na+] [Azlocillin (sodium salt)] | 31% | 0%
O=Cc1c[nH]c2cccc(O)c12 [4‐Hydroxy‐1H‐indole‐3‐carbaldehyde] | 23% | 5%
C[C@H]1CC[C@H]2[C@H](C)[C@H]3CC[C@@H]4[C@@H](C[C@H]5[C@H]4CC(=O)[C@H]4C[C@@H](O)CC[C@@]45C)[C@@H]3CN2C1 [Ebeiedinone] | 0% | 4%
CC(=O)OCC1=C(C(=O)O)N2C(=O)[C@@H](N)[C@H]2SC1 [7‐Aminocephalosporanic acid] | 3% | 0%
NCCC[C@H](N)C(=O)O [L-Ornithine] | 2% | 4%

From publication PMC11855827, “High-Throughput Screening of Five Compound Libraries for Anthelmintic Activity and Toxicity Leads to the Discovery of Two Flavonoid Compounds” (International Journal of Molecular Sciences, 2025)
